Measurements taken from patent US10087178B2, “Substituted spiropyrido[1,2-a]pyrazine derivative and medicinal use thereof as HIV integrase inhibitor” (priority 2012, dated 2018).
Where a name gives a salt, the structure may show the parent alone. Read-outs that look alike come from different tables or passages of the source.

Tested on: HIV-1 NL4-3 strain
Experiment: Evaluation of antiviral activity: acute infection system of MT-4 cell with HIV-1 NL4-3 strain
Format: cell-based
[1] = Human immunodeficiency virus 1, NL43, MT4, 120 h, read-out: antiviral activity (EC50), MT-4 cells infected with HIV-1 NL4-3 strain (MOI 0.05), cultured 5 days, Cell Titer-Glo
[2] = Human immunodeficiency virus 1, NL43, MT4, 120 h, MT-4 cells infected with HIV-1 NL4-3 strain (MOI 0.05), cultured 5 days, Cell Titer-Glo, read-out: antiviral activity (EC50)
[3] = Human immunodeficiency virus 1, NL43, MT4, 120 h, antiviral activity, MT-4 cells infected with HIV-1 NL4-3 (MOI 0.05), 5 days culture, Cell Titer-Glo luminescence, read-out: EC50
[4] = Human immunodeficiency virus 1, NL43, MT4, 120 h, antiviral activity, MT-4 cells infected with HIV-1 NL4-3 (MOI 0.05), 5 days culture, Cell Titer-Glo luminescence

N-(3-chloro-2-fluorobenzyl)- 9′-hydroxy-cis-3-methoxy-2′- methyl-1′,8′-dioxo- 1′,2′,4′,8′- tetrahydrospiro[cyclobutane- 1,3′-pyrido[1,2-a]pyrazine]- 7′-carboxamide hydrochloride [Example S63]
EC50 (MT-4 cells infected with HIV-1 NL4-3 strain (MOI 0.05), cultured 5 days, Cell Titer-Glo, read-out: antiviral activity (EC50)): 4 nM

CCN1C(=O)c2c(O)c(=O)c(C(=O)NCc3cccc(Cl)c3F)cn2C[C@]12C[C@H]2CO [Example T46, (1R,2R)-N-(3-chloro-2-fluorobenzyl)-2′-ethyl-9′-hydroxy-2-(hydroxymethyl)-1′,8′-dioxo-1′,2′,4′,8′-tetrahydrospiro[cyclopropane-1,3′-pyrido[1,2-a]pyrazine]-7′-carboxamide hydrochloride]
EC50 [1]: 3.4 nM

CCN1C[C@@]2(C[C@@H]2C(=O)NC)n2cc(C(=O)NCc3ccc(F)cc3F)c(=O)c(O)c2C1=O [Example T8, (1S,2S)-N^7′-(2,4-difluorobenzyl)-2′-ethyl-9′-hydroxy-N^2-methyl-1′,8′-dioxo-1′,2′,3′,8′-tetrahydrospiro[cylcopropane-1,4′-pyrido[1,2-a]pyrazine]-2,7′-dicarboxamide hydrochloride]
EC50 [2]: 6.1 nM

COC[C@@H]1C[C@]12Cn1cc(C(=O)NCc3cccc(Cl)c3F)c(=O)c(O)c1C(=O)N2C [Example T50, (1R,2R)-N-(3-chloro-2-fluorobenzyl)-9′-hydroxy-2-(methoxymethyl)-2′-methyl-1′,8′-dioxo-1′,2′,4′,8′-tetrahydrospiro[cyclopropane-1,3′-pyrido[1,2-a]pyrazine]-7′-carboxamide hydrochloride]
EC50 [1]: 3.7 nM

COC[C@H]1C[C@@]12CN(C)C(=O)c1c(O)c(=O)c(C(=O)NCc3cc(OC)cc(Cl)c3F)cn12 [Example T21, (1S,2S)-N-(3-chloro-2-fluoro-5-methoxybenzyl)-9′-hydroxy-2-(methoxymethyl)-2′-methyl-1′,8′-dioxo-1′,2′,3′,8′-tetrahydrospiro[cyclopropane-1,4′-pyrido[1,2-a]pyrazine]-7′-carboxamide]
EC50 [2]: 6.1 nM

CO[C@H]1C[C@]2(CN(C(C)C)C(=O)c3c(O)c(=O)c(C(=O)NCc4ccc(F)cc4F)cn32)C1 [Example S6, N-(2,4-difluorobenzyl)-9′-hydroxy-2′-isopropyl-cis-3-methoxy-1′,8′-dioxo-1′,2′,3′,8′-tetrahydrospiro[cyclobutane-1,4′-pyrido[1,2-a]pyrazine]-7′-carboxamide hydrochloride]
EC50 [3]: 3.7 nM

CN(C)C(=O)[C@@H]1C[C@]12CN(C1CC1)C(=O)c1c(O)c(=O)c(C(=O)NCc3cccc(Cl)c3F)cn12 [Example T33, (1R,2R)-N^7′-(3-chloro-2-fluorobenzyl)-2′-cyclopropyl-9′-hydroxy-N^2,N^2-dimethyl-1′,8′-dioxo-1′,2′,3′,8′-tetrahydrospiro[cyclopropane-1,4′-pyrido[1,2-a]pyrazine]-2,7′-dicarboxamide]
EC50 [2]: 3.3 nM

CCCO[C@H]1C[C@]2(CN(C)C(=O)c3c(O)c(=O)c(C(=O)NCc4cccc(Cl)c4F)cn32)C1 [Example S43, N-(3-chloro-2-fluorobenzyl)-9′-hydroxy-2′-methyl-1′-8′-dioxo-cis-3-propoxy-1′,2′,3′,8′-tetrahydrospiro[cyclobutane-1,4′-pyrido[1,2-a]pyrazine]-7′-carboxamide hydrochloride]
EC50 [2]: 4.7 nM

CC(C)N1C[C@]2(C[C@@H](OS(C)(=O)=O)C2)n2cc(C(=O)NCc3ccc(F)cc3F)c(=O)c(O)c2C1=O [Example S34, 7′-(2,4-difluorobenzylcarbamoyl)-9′-hydroxy-2′-isopropyl-1′,8′-dioxo-1′,2′,3′,8′-tetrahydrospiro[cyclobutane-1,4′-pyrido[1,2-a]pyrazine]- trans-3-yl methanesulfonate hydrochloride]
EC50 [2]: 5.7 nM

COC[C@H]1C[C@@]12CN(C(C)C)C(=O)c1c(O)c(=O)c(C(=O)NCc3ccc(F)cc3F)cn12 [Example 10, (1S,2S)—N-(2,4-difluorobenzyl)-9′-hydroxy-2′-isopropyl-2-(methoxymethyl)-1′,8′-dioxo-1′,2′,3′,8′-tetrahydrospiro[cyclopropane-1,4′-pyrido[1,2-a]pyrazine]-7′-carboxamide hydrochloride]
EC50 [4]: 3.6 nM

CC(C)N1CC2(CC(O)C2)n2cc(C(=O)NCc3ccc(F)cc3F)c(=O)c(O)c2C1=O (single isomer, unassigned) [Example S4, N-(2,4-difluorobenzyl)-cis-3,9′-dihydroxy-2′-isopropyl-1′,8′-dioxo-1′,2′,3′,8′-tetrahydrospiro[cyclobutane-1,4′-pyrido[1,2-a]pyrazine]-7′-carboxamide]
EC50 [3]: 4.9 nM

CC(C)N1C[C@]2(C[C@@H](CO)C2)n2cc(C(=O)NCc3ccc(F)cc3F)c(=O)c(O)c2C1=O [Example S24, N-(2,4-difluorobenzyl)-9′-hydroxy-trans-3-(hydroxymethyl)-2′-isopropyl-1′,8′-dioxo-1′,2′,3′,8′-tetrahydrospiro[cyclobutane-1,4′-pyrido[1,2-a]pyrazine]-7′-carboxamide hydrobromide]
EC50 [2]: 16 nM

CC(C)N1C[C@@]2(C[C@H]2CO)n2cc(C(=O)NCc3ccc(F)cc3F)c(=O)c(O)c2C1=O [Example 15, (1S,2R)—N-(2,4-difluorobenzyl)-9′-hydroxy-2-(hydroxymethyl)-2′-isopropyl-1′,8′-dioxo-1′,2′,3′,8′-tetrahydrospiro[cyclopropane-1,4′-pyrido[1,2-a]pyrazine]-7′-carboxamide hydrochloride]
EC50 [4]: 7.2 nM

COC[C@H]1C[C@]2(CN(C)C(=O)c3c(O)c(=O)c(C(=O)NCc4cccc(Cl)c4F)cn32)C1 [Example 29, Monopotassium 7′-(3-chloro-2-fluorobenzylcarbamoyl)-cis-3-(methoxymethyl)-2′-methyl-1′,8′-dioxo-1′,2′,3′,8′-tetrahydrospiro[cyclobutane-1,4′-pyrido[1,2-a]pyrazin]-9′-olate]
EC50 (Human immunodeficiency virus 1, NL43, MT4, 120 h, read-out: antiviral activity (EC50)): 2.5 nM

CCN1C[C@]2(C[C@@H](OC)C2)n2cc(C(=O)NCc3ccc(F)cc3F)c(=O)c(O)c2C1=O [Example S19, N-(2,4-difluorobenzyl)-2′-ethyl-9′-hydroxy-trans-3-methoxy-1′,8′-dioxo-1′,2′,3′,8′-tetrahydrospiro[cyclobutane-1,4′-pyrido[1,2-a]pyrazine]-7′-carboxamide hydrochloride]
EC50 [3]: 4.8 nM

CC(C)N1C[C@@]2(C[C@@H]2CO)n2cc(C(=O)NCc3ccc(F)cc3F)c(=O)c(O)c2C1=O [Example 9, (1S,2S)—N-(2,4-difluorobenzyl)-9′-hydroxy-2-(hydroxymethyl)-2′-isopropyl-1′,8′-dioxo-1′,2′,3′,8′-tetrahydrospiro[cyclopropane-1,4′-pyrido[1,2-a]pyrazine]-7′-carboxamide hydrochloride]
EC50 [4]: 5.6 nM

CC(C)O[C@H]1C[C@@]2(CN(C)C(=O)c3c(O)c(=O)c(C(=O)NCc4cccc(Cl)c4F)cn32)C1 [Example S40, N-(3-chloro-2-fluorobenzyl)-9′-hydroxy-trans-3-isopropoxy-2′-methyl-1′-8′-dioxo-1′,2′,3′,8′-tetrahydrospiro[cyclobutane-1,4′-pyrido[1,2-a]pyrazine]-7′-carboxamide hydrochloride]
EC50 [2]: 2.3 nM

CCOC[C@H]1C[C@]2(CN(CC)C(=O)c3c(O)c(=O)c(C(=O)NCc4cccc(Cl)c4F)cn32)C1 [Example S48, N-(3-chloro-2-fluorobenzyl)- cis-3-(ethoxymethyl)-2′-ethyl-9′-hydroxy-1′,8′-dioxo-1′,2′,3′,8′-tetrahydrospiro[cyclobutane-1,4′-pyrido[1,2-a]pyrazine]-7′-carboxamide hydrochloride]
EC50 [2]: 4.3 nM

CN1C[C@]2(C[C@H](CO)C2)n2cc(C(=O)NCc3cccc(Cl)c3F)c(=O)c(O)c2C1=O [Example S37, N-(3-chloro-2-fluorobenzyl)-9′-hydroxy-cis-3-(hydroxymethyl)-2′-methyl-1′,8′-dioxo-1′,2′,3′,8′-tetrahydrospiro[cyclobutane-1,4′-pyrido[1,2-a]pyrazine]-7′-carboxamide hydrochloride]
EC50 [2]: 3.8 nM

CN(C)C(=O)[C@H]1C[C@@]12CN(C1CC1)C(=O)c1c(O)c(=O)c(C(=O)NCc3cccc(Cl)c3F)cn12 [Example T32, (1S,2S)-N^7′-(3-chloro-2-fluorobenzyl)-2′-cyclopropyl-9′-hydroxy-N^2,N^2-dimethyl-1′,8′-dioxo-1′,2′,3′,8′-tetrahydrospiro[cyclopropane-1,4′-pyrido[1,2-a]pyrazine]-2,7′-dicarboxamide]
EC50 [2]: 3.3 nM

COC[C@H]1C[C@]2(CN(C)C(=O)c3c(O)c(=O)c(C(=O)NCc4cccc(Cl)c4F)cn32)C1 [Example 3, N-(3-chloro-2-fluorobenzyl)-9′-hydroxy-cis-3-(methoxymethyl)-2′-methyl-1′,8′-dioxo-1′,2′,3′,8′-tetrahydrospiro[cyclobutane-1,4′-pyrido[1,2-a]pyrazine]-7′-carboxamide hydrochloride]
EC50 [4]: 3.2 nM

CC(C)N1C(=O)c2c(O)c(=O)c(C(=O)NCc3cccc(Cl)c3F)cn2C[C@@]12C[C@@H]2CO [Example T47, (1S,2S)-N-(3-chloro-2-fluorobenzyl)-9′-hydroxy-2-(hydroxymethyl)-2′-isopropyl-1′,8′-dioxo-1′,2′,4′,8′-tetrahydrospiro[cyclopropane-1,3′-pyrido[1,2-a]pyrazine]-7′-carboxamide]
EC50 [2]: 4 nM

CN1C[C@]2(C[C@H](OCc3ccccc3)C2)n2cc(C(=O)NCc3ccc(F)cc3F)c(=O)c(O)c2C1=O [Example S10, cis-3-(benzyloxy)-N-(2,4-difluorobenzyl)-9′-hydroxy-2′-methyl-1′,8′-dioxo-1′,2′,3′,8′-tetrahydrospiro[cyclobutane-1,4′-pyrido[1,2-a]pyrazine]-7′-carboxamide hydrochloride]
EC50 [3]: 6.1 nM
